Measurements published in ChEMBL document CHEMBL1127437, “Novel benzisoxazole derivatives as potent and selective inhibitors of acetylcholinesterase” (J Med Chem, 1994).

Key:
[1] = target: Acetylcholinesterase (Homo sapiens, UniProt P22303)
Description: Evaluated for the in vitro inhibition of the Acetylcholinesterase (AChE) from human erythrocytes

[2] = tested on: Mus musculus; experiment: In vivo activity was determined by measuring […] in mouse forebrain.; assay type: functional
[3] = target: Butyrylcholinesterase (Equus caballus, UniProt Q9N1N9)
Description: Compound was evaluated for the in vitro inhibition of the Butyrylcholinesterase from horse serum

[4] = organism: Mus musculus; experiment: animal or person
Description: Tested for effective dose for elevation of Acetylcholinesterase (AChE) in mouse forebrain

[5] = tested on: Mus musculus; experiment: Tested for effective dose for […] by peroral administration in vivo in mouse; assay type: functional; conditions: po

Butyrylcholinesterase, sequence (Q9N1N9 whole entry): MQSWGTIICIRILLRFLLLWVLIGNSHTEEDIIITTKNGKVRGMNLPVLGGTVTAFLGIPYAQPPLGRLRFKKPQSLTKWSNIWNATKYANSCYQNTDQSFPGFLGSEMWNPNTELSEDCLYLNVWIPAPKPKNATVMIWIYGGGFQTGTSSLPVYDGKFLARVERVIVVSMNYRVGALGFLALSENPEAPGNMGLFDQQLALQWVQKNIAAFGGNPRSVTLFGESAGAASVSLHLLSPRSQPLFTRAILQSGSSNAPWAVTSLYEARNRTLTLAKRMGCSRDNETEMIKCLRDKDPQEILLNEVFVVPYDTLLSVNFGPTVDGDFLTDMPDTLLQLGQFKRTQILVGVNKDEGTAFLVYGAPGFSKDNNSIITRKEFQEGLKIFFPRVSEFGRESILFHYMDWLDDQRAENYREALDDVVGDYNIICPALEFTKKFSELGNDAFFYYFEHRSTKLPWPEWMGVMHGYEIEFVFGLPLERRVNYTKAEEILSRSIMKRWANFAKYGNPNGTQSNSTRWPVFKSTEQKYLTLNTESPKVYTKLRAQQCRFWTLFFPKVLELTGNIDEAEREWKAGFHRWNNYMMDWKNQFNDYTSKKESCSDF
Acetylcholinesterase, sequence (P22303 whole entry): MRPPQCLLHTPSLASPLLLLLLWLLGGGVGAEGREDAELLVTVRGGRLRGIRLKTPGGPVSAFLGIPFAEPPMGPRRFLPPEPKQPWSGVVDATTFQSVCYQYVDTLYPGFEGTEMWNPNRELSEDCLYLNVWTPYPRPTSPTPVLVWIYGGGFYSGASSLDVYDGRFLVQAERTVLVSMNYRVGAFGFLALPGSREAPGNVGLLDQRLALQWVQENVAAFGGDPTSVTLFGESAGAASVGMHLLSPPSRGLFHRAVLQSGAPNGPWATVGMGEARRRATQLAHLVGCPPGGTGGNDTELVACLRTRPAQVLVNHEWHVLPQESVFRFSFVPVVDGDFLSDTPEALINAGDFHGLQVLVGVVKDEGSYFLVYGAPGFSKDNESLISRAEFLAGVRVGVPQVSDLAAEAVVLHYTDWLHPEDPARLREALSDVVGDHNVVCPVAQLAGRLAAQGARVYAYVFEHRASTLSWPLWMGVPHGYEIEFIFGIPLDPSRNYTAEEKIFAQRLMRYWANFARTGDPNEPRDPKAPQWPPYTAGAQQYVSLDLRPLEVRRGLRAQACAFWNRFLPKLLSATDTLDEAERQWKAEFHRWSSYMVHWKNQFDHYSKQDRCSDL

SMILES | IC50 [1] [µM] | also measured
Cc1ccc2onc(CCC3CCN(Cc4ccccc4)CC3)c2c1 | 0.0078 | 
Brc1ccc2c(CCC3CCN(Cc4ccccc4)CC3)noc2c1 | 0.05 | 
O=C(Nc1ccc2c(CCC3CCN(Cc4ccccc4)CC3)noc2c1)c1ccccc1 |  | ED50 [2]: > 100 mg/kg
c1ccc(CN2CCC(CCc3ncnc4ccccc34)CC2)cc1 | 0.34 | 
c1ccc(CN2CCC(CCc3noc4cc(N5CCOCC5)ccc34)CC2)cc1 |  | IC50 [3]: 4.7 µM
COc1cc2c(cc1OC)C(=O)C(CC1CCN(Cc3ccccc3)CC1)C2 (stereo not drawn) [DONEPEZIL] |  | ED50 [4]: 14 mg/kg
O=S(=O)(Nc1ccc2c(CCC3CCN(Cc4ccccc4)CC3)noc2c1)c1ccccc1 | 0.014 | 
CNC(=O)Oc1ccc2c(c1)[C@]1(C)CCN(C)[C@@H]1N2C [PHYSOSTIGMINE] |  | IC50 [3]: 0.073 µM
Cc1cc2onc(CCC3CCN(Cc4ccccc4)CC3)c2cc1C | 0.0058 | 
N#Cc1ccc2c(CCC3CCN(Cc4ccccc4)CC3)noc2c1 | 0.101 | 
CC(=O)Nc1ccc2c(CCC3CCN(Cc4ccccc4)CC3)noc2c1 | 0.0028 | ED50 [5]: 2.4 mg/kg; IC50 [3]: 9 µM
